Where a name gives a salt, the structure may show the parent alone.
Assay: Phase 1 dose escalation study in healthy post-menopausal women, treatment related AEs
Format: in vivo
Procedure: The subjects were 40-75 years old with BMI of 18.0-30 kg/m^2. Subjects having evidence of clinically relevant pathology, increased risk of stroke or of history venous thromboembolic events, or use of concomitant medication less than 14 days prior to admission to clinical research center (paracetamol allowed up to 3 days prior) were excluded. Dosing
The subjects were treated with placebo or at least one dose p.o., q.d. after a light breakfast for 7 days at dose levels of 200 mg, 500 mg, 750 mg and 1000 mg, respectively.

Compound: CCNCCc1ccc(CN(CC)c2cc(OC)ccc2[C@@H]2CCc3cc(O)ccc3C2)cc1 [RAD1901, (6R)-6-(2-(N-(4-(2-(ethylamino)ethyl)benzyl)-N-ethylamino)-4-methoxyphenyl)-5,6,7,8-tetrahydronaphthalen-2-ol dihydrochloride]
- Nausea Gr2 (750 mg, N = 8): 1 (13) n(%)
- Nausea Gr3 (750 mg, N = 8): 0 n(%)
- Odynophagia Gr1 (750 mg, N = 8): 0 n(%)
- Odynophagia Gr2 (750 mg, N = 8): 0 n(%)
- Odynophagia Gr3 (750 mg, N = 8): 0 n(%)
- Oesophageal pain Gr1 (750 mg, N = 8): 1 (13) n(%)
- Oesophageal pain Gr2 (750 mg, N = 8): 0 n(%)
- Oesophageal pain Gr3 (750 mg, N = 8): 0 n(%)
- Salivary hypersecretion Gr1 (750 mg, N = 8): 2 (25) n(%)
- Salivary hypersecretion Gr2 (750 mg, N = 8): 0 n(%)
- Salivary hypersecretion Gr3 (750 mg, N = 8): 0 n(%)
- Sensation of a foreign body Gr1 (750 mg, N = 8): 0 n(%)
- Sensation of a foreign body Gr2 (750 mg, N = 8): 0 n(%)
- Sensation of a foreign body Gr3 (750 mg, N = 8): 0 n(%)
- Vomiting Gr1 (750 mg, N = 8): 0 n(%)
- Vomiting Gr2 (750 mg, N = 8): 2 (25) n(%)
- Vomiting Gr3 (750 mg, N = 8): 0 n(%)
- Abdominal discomfort Gr1 (1000 mg, N = 7): 0 n(%)
- Abdominal discomfort Gr2 (1000 mg, N = 7): 0 n(%)
- Abdominal discomfort Gr3 (1000 mg, N = 7): 0 n(%)
- Abdominal distension Gr1 (1000 mg, N = 7): 2 (29) n(%)
- Abdominal distension Gr2 (1000 mg, N = 7): 0 n(%)
- Abdominal distension Gr3 (1000 mg, N = 7): 0 n(%)
- Abdominal pain Gr1 (1000 mg, N = 7): 1 (14) n(%)
- Abdominal pain Gr2 (1000 mg, N = 7): 1 (14) n(%)
- Abdominal pain Gr3 (1000 mg, N = 7): 0 n(%)
- Diarrhoea Gr1 (1000 mg, N = 7): 3 (43) n(%)
- Diarrhoea Gr2 (1000 mg, N = 7): 1 (14) n(%)
- Diarrhoea Gr3 (1000 mg, N = 7): 0 n(%)
- Dizziness Gr1 (1000 mg, N = 7): 1 (14) n(%)
- Dizziness Gr2 (1000 mg, N = 7): 0 n(%)
- Dizziness Gr3 (1000 mg, N = 7): 0 n(%)
- Dyspepsia Gr1 (1000 mg, N = 7): 1 (14) n(%)
- Dyspepsia Gr2 (1000 mg, N = 7): 1 (14) n(%)
- Dyspepsia Gr3 (1000 mg, N = 7): 0 n(%)
- Dysphagia Gr1 (1000 mg, N = 7): 0 n(%)
- Dysphagia Gr2 (1000 mg, N = 7): 0 n(%)
- Dysphagia Gr3 (1000 mg, N = 7): 0 n(%)
- Flatulance Gr1 (1000 mg, N = 7): 0 n(%)
- Flatulance Gr2 (1000 mg, N = 7): 0 n(%)
- Flatulance Gr3 (1000 mg, N = 7): 0 n(%)
- Headache Gr1 (1000 mg, N = 7): 2 (29) n(%)
- Headache Gr2 (1000 mg, N = 7): 0 n(%)
- Headache Gr3 (1000 mg, N = 7): 0 n(%)
- Hiccups Gr1 (1000 mg, N = 7): 2 (29) n(%)
- Hiccups Gr2 (1000 mg, N = 7): 0 n(%)
- Hiccups Gr3 (1000 mg, N = 7): 0 n(%)
- Hot flush Gr1 (1000 mg, N = 7): 1 (14) n(%)
- Hot flush Gr2 (1000 mg, N = 7): 0 n(%)
- Hot flush Gr3 (1000 mg, N = 7): 0 n(%)
- Myalgia Gr1 (1000 mg, N = 7): 0 n(%)
- Myalgia Gr2 (1000 mg, N = 7): 0 n(%)
- Myalgia Gr3 (1000 mg, N = 7): 0 n(%)
- Nausea Gr1 (1000 mg, N = 7): 4 (57) n(%)
- Nausea Gr2 (1000 mg, N = 7): 2 (29) n(%)
- Nausea Gr3 (1000 mg, N = 7): 0 n(%)
- Odynophagia Gr1 (1000 mg, N = 7): 1 (14) n(%)
- Odynophagia Gr2 (1000 mg, N = 7): 1 (14) n(%)
- Odynophagia Gr3 (1000 mg, N = 7): 0 n(%)
- Oesophageal pain Gr1 (1000 mg, N = 7): 1 (14) n(%)
- Oesophageal pain Gr2 (1000 mg, N = 7): 1 (14) n(%)
- Oesophageal pain Gr3 (1000 mg, N = 7): 1 (14) n(%)
- Salivary hypersecretion Gr1 (1000 mg, N = 7): 2 (29) n(%)
- Salivary hypersecretion Gr2 (1000 mg, N = 7): 0 n(%)
- Salivary hypersecretion Gr3 (1000 mg, N = 7): 0 n(%)
- Sensation of a foreign body Gr1 (1000 mg, N = 7): 4 (57) n(%)
- Sensation of a foreign body Gr2 (1000 mg, N = 7): 0 n(%)
- Sensation of a foreign body Gr3 (1000 mg, N = 7): 0 n(%)
- Vomiting Gr1 (1000 mg, N = 7): 0 n(%)
- Vomiting Gr2 (1000 mg, N = 7): 3 (43) n(%)
- Vomiting Gr3 (1000 mg, N = 7): 0 n(%)
- dose limiting toxicities (DLT) (200-1000 mg p.o., q.d., 7 days): No dose limiting toxicites (DLT) were observed
- maximum tolerated dose (MTD) (200-1000 mg p.o., q.d., 7 days): not established
- Abdominal discomfort Gr1 (Total Active, N = 44): 4 n(%)
- Abdominal discomfort Gr2 (Total Active, N = 44): 1 (2) n(%)
- Abdominal discomfort Gr3 (Total Active, N = 44): 0 n(%)
- Abdominal distension Gr1 (Total Active, N = 44): 5 n(%)
- Abdominal distension Gr2 (Total Active, N = 44): 1 (2) n(%)
- Abdominal distension Gr3 (Total Active, N = 44): 0 n(%)
- Abdominal pain Gr1 (Total Active, N = 44): 7 n(%)
- Abdominal pain Gr2 (Total Active, N = 44): 3 (7) n(%)
- Abdominal pain Gr3 (Total Active, N = 44): 0 n(%)
- Diarrhoea Gr1 (Total Active, N = 44): 6 n(%)
- Diarrhoea Gr2 (Total Active, N = 44): 1 (2) n(%)
- Diarrhoea Gr3 (Total Active, N = 44): 0 n(%)
- Dizziness Gr1 (Total Active, N = 44): 5 n(%)
- Dizziness Gr2 (Total Active, N = 44): 0 n(%)
- Dizziness Gr3 (Total Active, N = 44): 0 n(%)
- Dyspepsia Gr1 (Total Active, N = 44): 13 n(%)
- Dyspepsia Gr2 (Total Active, N = 44): 3 (7) n(%)
- Dyspepsia Gr3 (Total Active, N = 44): 0 n(%)
- Dysphagia Gr1 (Total Active, N = 44): 4 n(%)
- Dysphagia Gr2 (Total Active, N = 44): 3 (7) n(%)
- Dysphagia Gr3 (Total Active, N = 44): 0 n(%)
- Flatulance Gr1 (Total Active, N = 44): 5 n(%)
- Flatulance Gr2 (Total Active, N = 44): 0 n(%)
- Flatulance Gr3 (Total Active, N = 44): 0 n(%)
- Headache Gr1 (Total Active, N = 44): 9 n(%)
- Headache Gr2 (Total Active, N = 44): 1 (2) n(%)
- Headache Gr3 (Total Active, N = 44): 0 n(%)
- Hiccups Gr1 (Total Active, N = 44): 9 n(%)
- Hiccups Gr2 (Total Active, N = 44): 0 n(%)
- Hiccups Gr3 (Total Active, N = 44): 0 n(%)
- Hot flush Gr1 (Total Active, N = 44): 11 n(%)
- Hot flush Gr2 (Total Active, N = 44): 0 n(%)
- Hot flush Gr3 (Total Active, N = 44): 0 n(%)
- Myalgia Gr1 (Total Active, N = 44): 3 n(%)
- Myalgia Gr2 (Total Active, N = 44): 2 (5) n(%)
- Myalgia Gr3 (Total Active, N = 44): 0 n(%)
- Nausea Gr1 (Total Active, N = 44): 14 n(%)
- Nausea Gr2 (Total Active, N = 44): 5 (11) n(%)
- Nausea Gr3 (Total Active, N = 44): 0 n(%)
- Odynophagia Gr1 (Total Active, N = 44): 4 n(%)
- Odynophagia Gr2 (Total Active, N = 44): 2 (5) n(%)
- Odynophagia Gr3 (Total Active, N = 44): 0 n(%)
- Oesophageal pain Gr1 (Total Active, N = 44): 3 n(%)
- Oesophageal pain Gr2 (Total Active, N = 44): 6 (14) n(%)
- Oesophageal pain Gr3 (Total Active, N = 44): 1 (2) n(%)
- Salivary hypersecretion Gr1 (Total Active, N = 44): 8 n(%)
- Salivary hypersecretion Gr2 (Total Active, N = 44): 0 n(%)
- Salivary hypersecretion Gr3 (Total Active, N = 44): 0 n(%)
- Sensation of a foreign body Gr1 (Total Active, N = 44): 7 n(%)
- Sensation of a foreign body Gr2 (Total Active, N = 44): 0 n(%)
- Sensation of a foreign body Gr3 (Total Active, N = 44): 0 n(%)
- Vomiting Gr1 (Total Active, N = 44): 3 n(%)
- Vomiting Gr2 (Total Active, N = 44): 10 (23) n(%)
- Vomiting Gr3 (Total Active, N = 44): 1 (2) n(%)
- Abdominal discomfort All (Total TEAE, N = 44): 5 n(%)
- Abdominal distension All (Total TEAE, N = 44): 6 n(%)
- Abdominal pain All (Total TEAE, N = 44): 10 n(%)
- Diarrhoea All (Total TEAE, N = 44): 7 n(%)
- Dizziness All (Total TEAE, N = 44): 5 n(%)
- Dyspepsia All (Total TEAE, N = 44): 16 n(%)
- Dysphagia All (Total TEAE, N = 44): 7 n(%)
- Flatulance All (Total TEAE, N = 44): 5 n(%)
- Headache All (Total TEAE, N = 44): 10 n(%)
- Hiccups All (Total TEAE, N = 44): 9 n(%)
- Hot flush All (Total TEAE, N = 44): 11 n(%)
- Myalgia All (Total TEAE, N = 44): 5 n(%)
- Nausea All (Total TEAE, N = 44): 19 n(%)
- Odynophagia All (Total TEAE, N = 44): 6 n(%)
- Oesophageal pain All (Total TEAE, N = 44): 10 n(%)
- Salivary hypersecretion All (Total TEAE, N = 44): 8 n(%)
- Sensation of a foreign body All (Total TEAE, N = 44): 7 n(%)
- Vomiting All (Total TEAE, N = 44): 14 n(%)

Source: patent publication US20240099996A1, “METHODS FOR TREATING CANCER” (Radius Pharmaceuticals, Inc., priority 2015, published 2024)
